The test system of assay [1] is ENR+CD organoids (ISC to Paneth cell differentiation). Description: Primary screen: CCh-stimulated lysozyme secretion LYZ.S, 2.5-D 384-well ENR+CD organoid differentiation. The format is cell-based, mouse. The conditions noted are these: primary screen. An excerpt: (§1) High-throughput screening.
For assay [2] the test system is unchanged. In words: Primary screen: basal (non-stimulated) lysozyme secretion LYZ.NS, 2.5-D 384-well ENR+CD organoid differentiation. It is filed as cell-based, mouse.
Description: as §1

The test system of assay [3] is ENR+CD organoids. In words: Primary screen: ATP (CellTiter-Glo 3D, CTG) cell number/viability, 2.5-D 384-well ENR+CD organoids.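 For all read-outs here: compounds given at plating and again on day 3 over a 6-day differentiation from ENR+CV stem-cell-enriched precursors, ATP measured on day 6, plate median as control.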 As to conditions: primary screen; for Z.CTG: standard z score. A general note: Cellular ATP, detected with luciferase, serves as a proxy for viable cell number.
[4] abbreviates: dose 0.08 uM, FC relative to plate median.
[5] abbreviates: dose 0.40 uM, FC relative to plate median.
Setting [6] is: dose 2.00 uM, FC relative to plate median.
Setting [7] is: dose 10.00 uM, FC relative to plate median.

Consider `CNC(=O)c1ccc(N2C(=S)N(c3ccc(C#N)c(C(F)(F)F)c3)C(=O)C2(C)C)cc1F` [Enzalutamide (MDV3100)], for which the Dose.FC.LYZ.S in assay [1] (dose 0.08 uM) turned out to be 0.176 log2 fold change; in assay [1] (dose 0.40 uM), 0.276 log2 fold change; in assay [1] (dose 2.00 uM), 0.077 log2 fold change; in assay [1] (dose 10.00 uM) it was 0.076 log2 fold change. Further, the Dose.FC.LYZ.NS was 0.162 log2 fold change in assay [2] (primary screen, dose 0.08 uM); 0.166 log2 fold change in assay [2] (primary screen, dose 0.40 uM); 0.024 log2 fold change in assay [2] (primary screen, dose 2.00 uM); 0.094 log2 fold change in assay [2] (primary screen, dose 10.00 uM). In addition, the Z.LYZ.NS in assay [2] (primary screen, standard z score, dose 0.08 uM) stood at 1.411; in assay [2] (primary screen, standard z score, dose 0.40 uM), 1.446; in assay [2] (primary screen, standard z score, dose 2.00 uM), 0.210; in assay [2] (primary screen, standard z score, dose 10.00 uM), 0.820. Further, the Dose.FC.CTG is given as 0.195 log2 fold change in assay [3] (dose 0.08 uM), 0.256 log2 fold change in assay [3] (dose 0.40 uM), 0.076 log2 fold change in assay [3] (dose 2.00 uM) and 0.146 log2 fold change in assay [3] (dose 10.00 uM). Further, the Z.CTG in assay [3] (dose 0.08 uM) is given as 0.465; in assay [3] (dose 0.40 uM), 0.611; in assay [3] (dose 2.00 uM) it was 0.181; in assay [3] (dose 10.00 uM) it was 0.348.

Regarding `CCC(COC(=O)c1cc(OC)c(OC)c(OC)c1)(c1ccccc1)N(C)C` (centres unmarked) [Trimebutine], the Dose.FC.LYZ.S in assay [1] (dose 0.08 uM) is 0.000 log2 fold change; in assay [1] (dose 0.40 uM) it was 0.002 log2 fold change; in assay [1] (dose 2.00 uM), −0.277 log2 fold change; in assay [1] (dose 10.00 uM), −0.332 log2 fold change. The Dose.FC.LYZ.NS is recorded as −0.014 log2 fold change in assay [2] (primary screen, dose 0.08 uM); −0.019 log2 fold change in assay [2] (primary screen, dose 0.40 uM); −0.202 log2 fold change in assay [2] (primary screen, dose 2.00 uM); −0.214 log2 fold change in assay [2] (primary screen, dose 10.00 uM). Besides, the “Z.LYZ.NS (standard z score)” value is −0.121 in assay [2] (primary screen, dose 0.08 uM); −0.166 in assay [2] (primary screen, dose 0.40 uM); −1.763 in assay [2] (primary screen, dose 2.00 uM); −1.863 in assay [2] (primary screen, dose 10.00 uM). In addition, the Dose.FC.CTG was 0.007 log2 fold change in assay [3] (dose 0.08 uM), −0.202 log2 fold change in assay [3] (dose 0.40 uM), −1.008 log2 fold change in assay [3] (dose 2.00 uM) and −1.066 log2 fold change in assay [3] (dose 10.00 uM).

For `CC(C)(C#N)c1cc(Cn2cncn2)cc(C(C)(C)C#N)c1` [Anastrozole], the Dose.FC.LYZ.S is 0.045 log2 fold change in assay [1] (dose 0.08 uM), 0.100 log2 fold change in assay [1] (dose 0.40 uM), −0.008 log2 fold change in assay [1] (dose 2.00 uM) and −0.081 log2 fold change in assay [1] (dose 10.00 uM). For the same compound, the Dose.FC.LYZ.NS is 0.035 log2 fold change in assay [2] (primary screen, dose 0.08 uM); 0.106 log2 fold change in assay [2] (primary screen, dose 0.40 uM); −0.003 log2 fold change in assay [2] (primary screen, dose 2.00 uM); −0.067 log2 fold change in assay [2] (primary screen, dose 10.00 uM). For the same compound, the “Z.LYZ.NS (standard z score)” value in assay [2] (primary screen, dose 0.08 uM) was 0.305; in assay [2] (primary screen, dose 0.40 uM) it was 0.924; in assay [2] (primary screen, dose 2.00 uM), −0.026; in assay [2] (primary screen, dose 10.00 uM), −0.580. The Dose.FC.CTG in assay [3] (dose 0.08 uM) was −0.117 log2 fold change; in assay [3] (dose 0.40 uM) it was 0.024 log2 fold change; in assay [3] (dose 2.00 uM) it was −0.058 log2 fold change; in assay [3] (dose 10.00 uM), −0.499 log2 fold change.

Turning to `CCc1nc(N)nc(N)c1-c1ccc(Cl)cc1` [Pyrimethamine], the Dose.FC.LYZ.S in assay [1] (setting [4]) is recorded as 0.042 log2 fold change; in assay [1] (setting [5]), −0.026 log2 fold change; in assay [1] (setting [6]), −0.162 log2 fold change; in assay [1] (setting [7]), −0.282 log2 fold change. In addition, the Dose.FC.LYZ.NS is listed as −0.005 log2 fold change in assay [2] (primary screen, dose 0.08 uM, FC relative to plate median); −0.018 log2 fold change in assay [2] (primary screen, dose 0.40 uM, FC relative to plate median); −0.144 log2 fold change in assay [2] (primary screen, dose 2.00 uM, FC relative to plate median); −0.138 log2 fold change in assay [2] (primary screen, dose 10.00 uM, FC relative to plate median). In addition, the Z.LYZ.NS is reported as −0.041 in assay [2] (primary screen, dose 0.08 uM, standard z score); −0.160 in assay [2] (primary screen, dose 0.40 uM, standard z score); −1.255 in assay [2] (primary screen, dose 2.00 uM, standard z score); −1.199 in assay [2] (primary screen, dose 10.00 uM, standard z score). Further, the Dose.FC.CTG was 0.007 log2 fold change in assay [3] (setting [4]), −0.259 log2 fold change in assay [3] (setting [5]), −0.416 log2 fold change in assay [3] (setting [6]) and −0.620 log2 fold change in assay [3] (setting [7]).

The values are drawn from US20220323406A1, “METHODS AND COMPOSITIONS FOR DIFFERENTIATING STEM CELLS” (Massachusetts Institute of Technology, priority 2019, published 2022).
